Data as given in US20050215529A1, “Method of treating oxidative stress-associated conditions with isopentenyl diphosphate” (THE REGENTS OF THE UNIVERSITY OF MICHIGAN, priority 2004, published 2005).

How the values were obtained:
[1] = system: human fibroblastoid M1 cells; assay: Comet assay, inhibition of 2CA- or IPP-mediated DNA damage protection by antagonists/inhibitors; assay type: cell-based; details: for effect on 2CA-mediated DNA damage protection / effect on IPP-mediated DNA damage protection: M1 cells pre-incubated with antagonist/inhibitor (lactacystin 5 μM, lovastatin 5 μM, GGTI-2147 0.2 μM, FTI-277 1 μM; others various concentrations), then 100 μM H2O2; for effect on 2CA-mediated DNA damage protection: then 2CA; for IC50: AR antagonists, M1 cells, 100 μM H2O2, Comet assay, read-out: IC50 (pM), block of 2CA-mediated DNA damage protection; for effect on IPP-mediated DNA damage protection: then IPP
Description: (§1) A single-cell gel electrophoresis (SCGE) assay, known as the “Comer” assay was performed to detect/quantify DNA damage by identifying DNA-strand breakage in individual cells, for example. The assay was performed using a kit commercially-available from Trevigen, Inc., of Gaithersburg, Md., as “CometAssay™.” See P. J. McCarthy et al. (1997) Mutagenesis 12:209-214; A. R. Collins et al. (2001) Biochem. Soc. Trans. 29:337-341. Sub-confluent cells were washed with phosphate buffered saline (PBS) and detached from the tissue culture flasks using a 0.05% trypsin solution. After centrifugation, the cells were washed and re-suspended in serum-free DMEM medium. The cells were divided into Eppendorf tubes (1.5 ml), and centrifuged at 2500 rotations per minutes (rpm) for ten minutes. Signal-modulating agents were added and samples were kept in a 37° C. incubator for thirty minutes. In some experiments, the cells were pre-incubated with various inhibitors for the indicated times at 37° C. At the end of the incubation period with signal-modulating chemicals, the cells were washed with PBS and treated with 100 μM H2O2 in 0.5 ml PBS on ice for twenty minutes. Following the hydrogen peroxide treatment, the cells were immediately microfuged for fifteen seconds. The cells were twice washed with cold PBS, and re-suspended at 1.0×10^5 cells/ml in ice-cold PBS. Five microliter cell suspension were each mixed with 50 μl molten LMAgarose and, thereafter, the mixtures were placed onto slides (CometSlide™).
(§2) The slides were placed at 4° C. in the dark for ten minutes and subsequently immersed in pre-chilled Lysis Solution at 4° C. for an additional thirty minutes. Following this incubation, excess buffer was tapped off from the slides. Subsequently, the slides were placed in a 50 ml Coplin jar containing alkali buffer for thirty minutes at room temperature in the dark and then immersed in 50 ml of TBE buffer for five minutes. The slides were then placed flat onto a gel tray submerged in TBE buffer in a horizontal electrophoresis apparatus, and aligned equidistant from the electrodes. Electrophoresis was performed at one volt per centimeter (cm) for ten minutes. Following this electrophoresis, the samples were fixed in 100% methanol for five minutes and 100% ethanol for five minutes. After drying, 50 μl of diluted SYBR Green Concentrate was added onto each circle of agarose. Comet tail fluorescence intensity was quantified with a Diagnostic Instruments digitized camera, mounted on a Nikon Eclipse E400 microscope, using Scion Image software. Quantification of comet fluorescence was performed as described in P. J. McCarthy et al. (1997) Mutagenesis 12:209-214. Each data point was derived from 30 to 100 individual cells. The data are shown either in arbitrary fluorescent units, or as % DNA damage protection (i.e., the percent decrement in tail fluorescence intensity with test reagent, relative to the intensity recorded in cells treated with hydrogen peroxide only)±S.E.M.
Specifically, […], human fibroblastoid M1 cells were incubated for thirty minutes in either H-89 or 8-bromoguanosine-3′,5′-cyclic monophosphate (8-Br-cGMP) (B), or for fifteen minutes in SNAP, at different concentrations. […] Following induction of oxidative stress, DNA damage was quantified using the Comet assay, as described above. Shown in FIGS. 14-16 are graphs illustrating the DNA damage protection as function of the molar concentration of H-89 (FIG. 14), 8-Br-cGMP (FIG. 15), and SNAP (FIG. 16).
In yet another test, human fibroblastoid M1 cells were pre-incubated for fifteen minutes with different concentrations of the A2bAR antagonist, enprofylline (Enpro).

[2] = system: human fibroblastoid M1 cells; assay: Comet assay, protection against H2O2-induced DNA damage; assay type: cell-based; details: M1 cells; for IC50: AR agonists and isoprenyls, 100 μM H2O2, Comet assay, read-out: IC50 (pM), DNA damage protection; for triggering of DNA damage protection: various concentrations, 100 μM H2O2
Description: as §1, §2
A dose response analysis of DNA damage protection also was performed to determine the efficacy of various doses of isopentenyl diphosphate versus 2-chloroadenosine. The analysis was carried out by pre-incubating human fibroblastoid M1 cells for thirty minutes with different concentrations of isopentenyl diphosphate or 2-chloroadenosine prior to incubating the cells with 100 μM H2O2 to induce oxidative stress. Following induction of oxidative stress, DNA damage was quantified using the Comet assay, as described above.

[3] = system: A1AR-transfected HEK293 cells; assay: Comet assay in A1AR-transfected HEK293 cells; assay type: cell-based, human; details: A1AR-transfected HEK293 cells, 100 μM H2O2
Description: A single-cell gel electrophoresis (SCGE) assay, known as the “Comer” assay was performed to detect/quantify DNA damage by identifying DNA-strand breakage in individual cells, for example. The assay was performed using a kit commercially-available from Trevigen, Inc., of Gaithersburg, Md., as “CometAssay™.” See P. J. McCarthy et al. (1997) Mutagenesis 12:209-214; A. R. Collins et al. (2001) Biochem. Soc. Trans. 29:337-341. Sub-confluent cells were washed with phosphate buffered saline (PBS) and detached from the tissue culture flasks using a 0.05% trypsin solution. After centrifugation, the cells were washed and re-suspended in serum-free DMEM medium. The cells were divided into Eppendorf tubes (1.5 ml), and centrifuged at 2500 rotations per minutes (rpm) for ten minutes. Signal-modulating agents were added and samples were kept in a 37° C. incubator for thirty minutes. In some experiments, the cells were pre-incubated with various inhibitors for the indicated times at 37° C. At the end of the incubation period with signal-modulating chemicals, the cells were washed with PBS and treated with 100 μM H2O2 in 0.5 ml PBS on ice for twenty minutes. Following the hydrogen peroxide treatment, the cells were immediately microfuged for fifteen seconds. The cells were twice washed with cold PBS, and re-suspended at 1.0×10^5 cells/ml in ice-cold PBS. […]
The slides were placed at 4° C. in the dark for ten minutes and subsequently immersed in pre-chilled Lysis Solution at 4° C. for an additional thirty minutes. […] Comet tail fluorescence intensity was quantified with a Diagnostic Instruments digitized camera, mounted on a Nikon Eclipse E400 microscope, using Scion Image software. Quantification of comet fluorescence was performed as described in P. J. McCarthy et al. (1997) Mutagenesis 12:209-214. […] The data are shown either in arbitrary fluorescent units, or as % DNA damage protection (i.e., the percent decrement in tail fluorescence intensity with test reagent, relative to the intensity recorded in cells treated with hydrogen peroxide only)±S.E.M. […]

## CC(=O)N[C@@H](C(=O)O)C(C)(C)SN=O (racemic) [SNAP]
[1]
  effect on 2CA-mediated DNA damage protection: dose-dependent inhibition of 2CA-mediated antioxidative signal

## CC(C)=CCC/C(C)=C/CC/C(C)=C/CO[P@@](=O)(O)OP(=O)(O)O (stereo in doubt) [FPP, farnesyl diphosphate]
[2]; Homo sapiens
  IC50: > 1e+07 pM

## Nc1ncnc2c1nc(Br)n2[C@@H]1O[C@@H]2COP(=O)(O)O[C@H]2[C@H]1O [8-Br-cAMP, 8-bromo adenosine 3′,5′-cyclic monophosphate]
[3]
  DNA damage protection response: responded efficiently
[2]
  triggering of DNA damage protection: produced similar protection against oxidative DNA damage

## Nc1nc2c(nc(Br)n2[C@@H]2O[C@@H]3COP(=O)(O)O[C@H]3[C@H]2O)c(=O)[nH]1 [8-Br-cGMP, 8-bromoguanosine-3′,5′-cyclic monophosphate]
[1]
  effect on 2CA-mediated DNA damage protection: dose-dependent inhibition of 2CA-mediated antioxidative signal

## CCNC(=O)[C@H]1O[C@@H](n2cnc3c(N)nc(NCCc4ccc(CCC(=O)O)cc4)nc32)[C@H](O)[C@@H]1O [CGS21680, 2-[p-2-(carbonyl-ethyl)-phenyethylamino]-5′-N-ethylcarboxaminoadenosine]
[2]; Homo sapiens
  IC50: > 3e+07 pM
[2]
  triggering of DNA damage protection: failed to transduce the signal

## Cn1c(=O)c2c(nc(C=Cc3cccc(Cl)c3)n2C)n(C)c1=O [CSC, 8-(3-chlorostyryl) caffeine]
[1]; Homo sapiens
  IC50: > 1e+07 pM
[1]
  effect on 2CA-mediated DNA damage protection: failed to block 2CA-mediated DNA damage protection

## CCCn1c(=O)c2[nH]c(C3CCCC3)nc2n(CCC)c1=O [DPCPX, [(3)H]1,3-dipropyl-8-cyclopentylxanthine]
[1]
  IC50: > 1e+07 pM
  effect on 2CA-mediated DNA damage protection: failed to block 2CA-mediated DNA damage protection

## CCCn1c(=O)[nH]c(=O)c2nc[nH]c21 [Enprofylline, enprofylline]
[1]
  IC50: 1.8e+06 pM
  effect on 2CA-mediated DNA damage protection: effectively blocked the signal
  effect on IPP-mediated DNA damage protection: the IPP-mediated effect was resistant

## COC(=O)[C@H](CCSC)NC(=O)c1ccc(NC[C@@H](N)CS)cc1-c1ccccc1 [FTI-277]
[1]
  effect on 2CA-mediated DNA damage protection: Neither GGTI-2147 (FIG. 24B) nor FTI-277 (FIG. 25) had a significant effect
  effect on IPP-mediated DNA damage protection: had no effect on isopentenyl diphosphate activity

## CC(C)=CCC/C(C)=C/CC/C(C)=C/CC/C(C)=C/COP(=O)(O)OP(=O)(O)O [GGPP, geranylgeranyl diphosphate]
[2]
  IC50: 660 pM
  triggering of DNA damage protection: effective in triggering antioxidative activity

## COC(=O)[C@H](CC(C)C)NC(=O)c1ccc(NCc2cnc[nH]2)cc1-c1cccc2ccccc12 [GGTI-2147]
[1]
  effect on 2CA-mediated DNA damage protection: Neither GGTI-2147 (FIG. 24B) nor FTI-277 (FIG. 25) had a significant effect
  effect on IPP-mediated DNA damage protection: effectively blocked IPP-mediated DNA damage protection

## O=S(=O)(NCCNCC=Cc1ccc(Br)cc1)c1cccc2cnccc12 [H-89, N-[2-(p-bromocynnamylamino)ethyl]-5-isoquinolinesulfonamide]
[1]
  effect on 2CA-mediated DNA damage protection: dose-dependent inhibition of 2CA-mediated antioxidative signal
  effect on IPP-mediated DNA damage protection: the IPP-mediated effect was resistant

## CNC(=O)[C@H]1O[C@@H](n2cnc3c(NCc4cccc(I)c4)ncnc32)[C@H](O)[C@@H]1O [IB-MECA, N6-(3-iodobenzyl)adenosine-5′-N-methyluronamide]
[2]
  IC50: > 1e+07 pM
  triggering of DNA damage protection: failed to transduce the signal

## C=C(C)CCOP(=O)(O)O [IMP, isopentenyl monophosphate]
[2]
  IC50: > 1e+07 pM
  triggering of DNA damage protection: failed to trigger antioxidative signaling

## CCNC(=O)C1OC(n2cnc3c(N)ncnc32)C(O)C1O (centres unmarked) [NECA, 5′-(N-ethylcarboxyamido)-adenosine]
[2]
  IC50: < 1000 pM
  triggering of DNA damage protection: triggered DNA damage protection

## CCCCC[C@H](O)/C=C/[C@H]1[C@H](O)CC(=O)[C@@H]1CCCCCCC(=O)O [PGE1, Prostaglandin E1]
[2]
  triggering of DNA damage protection: induction of resistance to oxidative DNA damage

## CCCn1c(=O)c2[nH]c(-c3ccc(OCC(=O)NCCN)cc3)nc2n(CCC)c1=O [XAC, xanthine amine congener]
[1]
  IC50: 3.2e+06 pM
  effect on 2CA-mediated DNA damage protection: effectively blocked the signal

## CC(=O)N[C@@H](CSC(=O)[C@]1([C@@H](O)C(C)C)NC(=O)[C@H](C)[C@@H]1O)C(=O)O [lactacystin]
[1]
  effect on 2CA-mediated DNA damage protection: did not similarly block 2CA-mediated DNA damage protection signaling
  effect on IPP-mediated DNA damage protection: blocked IPP-mediated DNA damage protection signaling

## CC[C@H](C)C(=O)O[C@H]1C[C@@H](C)C=C2C=C[C@H](C)[C@H](CC[C@@H]3C[C@@H](O)CC(=O)O3)[C@H]21 [lovastatin]
[1]
  effect on 2CA-mediated DNA damage protection: did not similarly block 2CA-mediated DNA damage protection signaling
  effect on IPP-mediated DNA damage protection: completely blocked IPP-mediated DNA damage protection signaling
